This is an account of results in patent US10035806B2, “Derivatized corroles and metallocorroles and their use as imaging and therapeutic agents” (CALIFORNIA INSTITUTE OF TECHNOLOGY, priority 2015, dated 2018).

The nature of one data set: solubility in water. The class given is physicochemical.
Data set [1] relates to DU-145, SK-MEL-28, MDA-MB-231, OVCAR-3. Description: Uptake of gallium corroles (ImageXpress confocal), cell lines taken together. The settings on record: 30 μM, 37° C., dark. In kind it is cell-based, human. The protocol: The intracellular uptake of gallium corroles was quantified using the ImageXpressultra laser point-scanning confocal microscope (Molecular Devices). The fluorescence image acquisition settings were as previously reported (Lim P, et al. (2012), Chem Res Toxicol 25(2):400-409.). Cells (DU-145, SK-MEL-28, MDA-MB-231, and OVCAR-3) were seeded in 96-well dishes (8×10^3 cells per well in 0.1 mL) and allowed to attach overnight. Complex 1, 2, 3, or 4 was added directly to cell media at 30 μM final concentration or media only control, and incubated for 0.25, 1, 3, or 24 h at 37° C. in the dark under a 5% CO2 atmosphere. Cells were fixed and labeled in situ with WGA-Alexa Fluor 488 conjugate and DAPI to allow for the identification of cell boundary and nucleus, respectively. The quantification of blue (DAPI) fluorescence signals in each sample yielded the total number of cells in that population. Corresponding determination of red (corrole) fluorescence within each cell, corrected for background fluorescence from untreated cells, provided the number of cells containing corroles. For each corrole concentration at various time points, fluorescence data were obtained for 1,000-22,000 individual cells. Data acquisitions and analyses were performed as described (Lim P, et al. (2012), Chem Res Toxicol 25(2):400-409). The percentage of corrole-positive cells and the median fluorescence intensity (median RFU) for each treatment were plotted in a three-axis graph using Microsoft Office Excel 2007 (Microsoft Corporation).
To quantify the kinetics of intracellular uptake and accumulation of each derivative, ImageXpressultra, a laser point-scanning confocal microscope, was used for analyses. […] Cells were incubated at 37° C. in the dark for 0.25, 1, 3, or 24 h. […] Within 15 min, Complex 4 fluorescence was observable in ˜80% of ovarian cancer cells, 97% of breast cancer cells, and >99% of prostate cancer and melanoma cells, whereas up to 3 and 24 h were required to label >80% of cells from all four cancer lines with Complexes 3 and 2, respectively. […]

For data set [2], the system named is SK-MEL-28. Description: MTS assay (cytotoxicity). To be noted: SK-MEL-28 (melanoma), 72 h exposure in the dark, mean of three experiments. The class given is cell-based, human. The source says:
(§1) Reagents were obtained from the indicated suppliers: HBSS without phenol red and trypsin-EDTA (0.25%), Invitrogen/Gibco; PBS, Mediatech; 4′,6-diamidino-2-phenylindole dihydrochloride (DAPI) and DMSO, Sigma-Aldrich; paraformaldehyde, Electron Microscopy Sciences; WGA, Alexa Fluor 488 conjugate, Invitrogen/Molecular Probes; and ProLong Gold Antifade Mountant with DAPI, Life Technologies. Human Cancer Cell Lines. Four cell lines from the NCI60 cell panel (Shoemaker RH (2006) The NCI60 human tumour cell line anticancer drug screen. Nat Rev Cancer 6(10):813-823) representing four distinct tumor types were used in this study: DU-145, prostate; MDA-MB-231, breast; SK-MEL-28, melanoma; and OVCAR-3, ovarian. Cells were grown in RPMI 1640 cell culture medium (Mediatech) containing 2 mM L-glutamine, supplemented with 10% FBS (Omega Scientific), and maintained at 37° C. under 5% CO2 in a humidified incubator.
(§2) At the time of drug treatment, stock solutions of 1-4 were diluted to 10-fold the desired final test concentrations with RPMI medium 1640. Aliquots of […] of these diluted solutions were added to the appropriate microtiter wells containing 90 μL of medium, resulting in the required final drug concentrations (eight concentrations per compound, ranging from 0.3 to 600 μM). The final concentration of DMSO in test culture was <1%. […] Following 72 h of exposure at 37° C., cell viability was determined using the MTS assay (CellTiter 96 Aqueous One Cell Proliferation Assay; Promega) according to the manufacturer's instructions. Absorbances were measured using a microplate reader (Synergy 4; Biotek Instruments) at 490 nm. Experiments were performed in triplicate and each dose-response curve represents the mean of three or more independent experiments. Spectrophotometric data were analyzed by sigmoid dose-response, nonlinear regression analysis; the IC50, Emax values, and associated SE were calculated using GraphPad Prism 6 (GraphPad Software).
(§3) The effects of bis-sulfonate, carboxylate, and aminocaproate ring substituents on gallium corrole cytotoxicities were examined using four human cancer cell lines, representing tumors of different origin selected based on previously described sensitivities.

Another data set has as its system MDA-MB-231. Description: MTS assay (cytotoxicity). In kind it is cell-based, human. To be noted: MDA-MB-231 (breast), 72 h exposure in the dark, mean of three experiments.
From the text: as §1, §2, §3

A further data set relates to DU-145. Put plainly: MTS assay (cytotoxicity). The class given is cell-based, human. The settings on record: DU-145 (prostate), 72 h exposure in the dark, MTS assay, mean of three experiments.
From the text: as §1, §2, §3

A further data set relates to OVCAR-3. Put plainly: MTS assay (cytotoxicity). The class given is cell-based, human. The settings on record: OVCAR-3 (ovarian), 72 h exposure in the dark, mean of three experiments.
From the text: as §1, §2, §3

Data set [3] deals with SK-MEL-28. Description: NCI60 anticancer drug screen. The settings on record: SK-MEL-28 (Melanoma), 10 μM, 48 h; lethality rather than inhibition. The class given is cell-based, human.
The test system of data set [4] is DU-145, SK-MEL-28, MDA-MB-231, OVCAR-3. Put plainly: MTS assay, all four cell lines taken together. In kind it is cell-based, human. The settings on record: Table 1 comparison, 72 h.
From the text: as §1, with “Cells were grown in RPMI 1640 cell culture medium (Mediatech) containing 2 mM L-glutamine, supplemented with 10% FBS (Omega Scientific), and maintained at 37° C. under 5% CO2 in a humidified incubator.” left out
At the time of drug treatment, stock solutions of 1-4 were diluted to 10-fold the desired final test concentrations with RPMI medium 1640. […] Following 72 h of exposure at 37° C., cell viability was determined using the MTS assay (CellTiter 96 Aqueous One Cell Proliferation Assay; Promega) according to the manufacturer's instructions. Absorbances were measured using a microplate reader (Synergy 4; Biotek Instruments) at 490 nm. […] Spectrophotometric data were analyzed by sigmoid dose-response, nonlinear regression analysis; the IC50, Emax values, and associated SE were calculated using GraphPad Prism 6 (GraphPad Software). […]

Another data set concerns LOX IMVI. Description: NCI60 anticancer drug screen. The class given is cell-based, human. To be noted: LOX IMVI (Melanoma), 10 μM, 48 h; lethality rather than inhibition.

Marks after values point to notes of the source that are not given here.

For the compound `O=C(O)CCCCCNc1c(F)c(F)c(C2=C3C=CC4=[N+]3[Ga-]35[n]6c2ccc6C(c2c(F)c(F)c(F)c(F)c2F)=c2ccc([n]23)=C(c2c(F)c(F)c(F)c(F)c2F)c2ccc4[n]25)c(F)c1F` (stereo not drawn) [Complex 3], the solubility in water result in “solubility in water” was “easily solubilized in water”. The “time required to label >80% of cells from all four cancer lines” value in [1] is recorded as “up to 3 h”. In addition, the IC50 with SK-MEL-28 [2] was determined as 14.4 µM; in the data set on MDA-MB-231 it was 13.7 µM; in the data set with DU-145 it was 17.6 µM; with OVCAR-3, 12.7 µM. The entries for the “% lethality” value in the data set with SK-MEL-28 [3] and with LOX IMVI were 12.1** % and 9.7** %, respectively. For the same compound, the “IC50 lower than Complex 2” value in data set [4] was 10 fold.
